In PMC12245127, “Cancer Specific CAIX‐Targeting Supramolecular Lysosome‐Targeting Chimeras (Supra‐LYTAC) for Targeted Protein Degradation” (Advanced Science, 2025):

Tests used:
Format in all cases: cell-based
HeLa = test: Endocytosis pathway analysis with inhibitors; conditions: inhibitor pre-incubated 30 min (400 mM sucrose, 30 μM EIPA), then 100 μM Py-FFK-Az, 5 μM Py-FFK-Biotin, 400 nM streptavidin-FITC 3 h, flow cytometry, n = 3
Description: We next examined the cellular localization of Supra‐LYTAC using CLSM. […] To understand the lysosomal trafficking mechanism, we conducted inhibitor studies. […]
fluorometer (F-7000, Hitachi). The ratio for I1 band and I3 band was plotted to obtain CAC […]
S.1.12. Transmission electron microscopy study. To confirm the peptide self-assembly nanostructures, 50 μM of peptide solution in water was prepared. Then, 8 μL was dropped onto a copper grid. After the droplet is fully dried, it was repeated once more. After that, negative staining was achieved using 2 wt% uranyl acetate solution for 10 min in RT. After washing using DI water, the self-assembly morphology was visualized using JEM-1400 by JEOL and […]
To visualize peptide-protein nanocomplex, streptavidin stock solution was added into the solution consisting of 50 μM peptide solution (mixture of Py-FFK-Az and Py-FFK-Biotin in 20:1 ratio) to obtain 400 nM and 10 μM solutions. Then, TEM sample was prepared with the same protocol of peptide self-assembly visualization.
S.1.13. Circular dichroism spectroscopy. 100 μM peptide solution was initially prepared.
The solution was transferred into quartz cell with 1 mm path length (Hellma), and CD spectrum was recorded using CD spectrometer (J-815, JASCO) under the flow of nitrogen.
S.1.14. FT-IR spectroscopy. 1 mM peptide solution was prepared for FT-IR spectroscopy.
The solution was measured using L1600300 Spectrum TWO LiTa FT-IR spectrometer by […]
S.1.15. Cell culture. HeLa, 4T1, and NIH/3T3 were supplied from Korean Cell Line Bank. […]
After growing for 24 h, Py-FFK-Az, Py-FFK-Biotin, Py-GGK-Az, Py-GGK-Biotin was treated with different concentrations. […] After 4 h incubation, MTT formazan was solubilized by SDS solution, and monitored using SpectraMax M5e Multi Mode Microplate Reader by Molecular Devices.
S.1.17. […] After that, the cells were washed and analyzed using FACSverse (Becton Dickinson And Company).
S.1.18. […] After that, the cells were washed and analyzed using confocal laser scanning microscopy (LSM780 and 880 by ZEISS). […]

PD‐L1 [1] = target: T1, PD‐L1 (Homo sapiens, UniProt Q9NZQ7); test: Western blot analysis for PD-L1 degradation, HeLa; conditions: 24 h, 1:1 ratio (100 μM each)
T1 construct: endogenous in cells; host or cells: HeLa
T1 sequence (Q9NZQ7 19-290): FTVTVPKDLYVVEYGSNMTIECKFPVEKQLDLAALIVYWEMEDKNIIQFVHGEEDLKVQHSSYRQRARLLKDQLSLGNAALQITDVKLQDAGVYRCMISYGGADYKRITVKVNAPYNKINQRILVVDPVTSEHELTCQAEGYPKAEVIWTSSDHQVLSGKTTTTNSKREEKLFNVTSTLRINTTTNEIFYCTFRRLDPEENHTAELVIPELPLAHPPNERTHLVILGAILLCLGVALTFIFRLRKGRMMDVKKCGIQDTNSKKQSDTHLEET
Description: (§1) We next evaluated PD‐L1 degradation using Western blot (WB) analysis. […] Initially, we verified BMS‐conjugated peptides were non‐toxic by MTT assay (Figure S37, Supporting Information). We then assessed PD‐L1 degradation in HeLa cells after 24‐h treatment with 100 µM Py‐FFK‐Az and varying concentrations of Py‐FFK‐BMS. […] To further assess the effect for Py‐FFK‐Az, we conducted WB analysis with 100 µM Py‐FFK‐BMS at varying concentration for Py‐FFK‐Az. […] PD‐L1 degradation was inhibited by co‐treatment with CAIX inhibitor, confirming the role of CAIX‐mediated endocytosis in lysosomal uptake (Figure S39, Supporting Information). To further validate lysosome‐dependent protein degradation, we conducted WB analysis with chloroquine, a lysosomal inhibitor. […] Furthermore, PD‐L1 fluorescence was restored when chloroquine was co‐administered with the 1:1 Py‐FFK‐Az:Py‐FFK‐BMS mixture, confirming lysosomal involvement in PD‐L1 degradation. […]
(§2) μM Py-FFK-Az and 5μM Py-FFK-Biotin was co-incubated with 400 nM streptavidin-FITC. […]
(§3) as counterstaining agent. IF signals were analyzed using confocal laser scanning microscopy […]
(§4) S.1.22. […] Tumor growth was monitored using the digital caliper. We calculated the tumor volume using the formula [volume = (tumor length) × (tumor width)2/2]. […] The tumor size and body weight were measured and […]
(§5) S.1.23. […] All the data are expressed as mean ± standard deviation (SD). […]

PD‐L1 [2] = target: T1, PD‐L1; test: Immunofluorescence analysis of PD-L1, HeLa; conditions: 24 h
Description: as §1, §2, §3, §4, §5

| SMILES | effect of inhibitor on POI uptake by Supra-LYTAC (HeLa) | effect of inhibitor co-treatment on PD-L1 degradation by Py-FFK-Az and Py-FFK-BMS (WB) (PD‐L1 [1]) | PD-L1 immunofluorescence on chloroquine co-administration with 1:1 Py-FFK-Az:Py-FFK-BMS (PD‐L1 [2]) |
| --- | --- | --- | --- |
| OC[C@H]1O[C@@](CO)(O[C@H]2O[C@H](CO)[C@@H](O)[C@H](O)[C@H]2O)[C@@H](O)[C@@H]1O [sucrose] | substantially reduced | – | – |
| CC(=O)Nc1nnc(S(N)(=O)=O)s1 [acetazolamide] | significantly reduced | inhibited | – |
| CCN(CC)CCCC(C)Nc1ccnc2cc(Cl)ccc12 (stereo not drawn) [chloroquine] | – | significantly reduced PD‐L1 degradation | restored |
| CCN(c1nc(N)c(C(=O)NC(=N)N)nc1Cl)C(C)C [EIPA] | no effect | – | – |
